Drawing on publication PMC9853512 (RSC Advances, 2023), this text covers MIC for two compounds.

≈ marks a conversion by molar mass, not a printed value.

Assay type in all cases: cell-based
Experiment [1] deals with S. aureus strain ATCC 29213. Kind of experiment: MIC, two-fold microdilution assay, S. aureus. As to conditions: Staphylococcus aureus, ATCC29213, 18 h, read-out: MIC S. Aureus ATCC 29213. (Broth dilution looks for growth in wells or tubes with falling amounts of substance.)
For experiment [2], the system named is E. coli strain ATCC 25922. Nature of the experiment: MIC, two-fold microdilution assay, E. coli. As to conditions: Escherichia coli, ATCC25922, 18 h, read-out: MIC E. coli ATCC 25922.
Experiment [3] concerns C. albicans strain ATCC14053. Nature of the experiment: MIC, two-fold microdilution assay, C. albicans. The note with it: Candida albicans, ATCC14053, 18 h, read-out: MIC C. Albicans ATCC14053.
For another experiment, the system named is H. pylori strain SS1. Kind of experiment: MIC, two-fold microdilution assay, H. pylori. As to conditions: Helicobacter pylori, SS1, 48 h, read-out: MIC H. pylori SS1.

As usually defined, the MIC is the least concentration at which growth counts as inhibited. For `O=C1OCCN1N=Cc1ccc([N+](=O)[O-])o1` [FZD, 3-(5-nitrofurfurylideneamino)-2-oxazolidinone], the MIC in experiment [1] was 3.12 µg/mL (≈ 13.9 µM); in experiment [2] it was 0.391 µg/mL (≈ 1.73 µM); in experiment [3], greater than 50 µg/mL; with H. pylori strain SS1 it was less than 0.0976 µg/mL.
On to `O=C1CN(N=Cc2ccc([N+](=O)[O-])o2)C(=O)N1` [NFT, 1-(((5-nitro-2-furanyl)methylene)amino)-2,4-imidazolidinedione], for which the MIC in experiment [1] is 25 µg/mL (≈ 105 µM); in experiment [2], 12.5 µg/mL (≈ 52.5 µM); in experiment [3], greater than 50 µg/mL.
